Read-outs that look alike come from different tables or passages of the source.
What was measured:
Assay in all cases: Volatile MIC of Samples 1-4 (Example 19)
Assay type in all cases: cell-based
[1] = test system: Monilinia fructicola; conditions: 50 µl/disk
[2] = test system: Glomerella cingulata; conditions: 50 µl/disk; first test (Table 15)
[3] = test system: Penicillium expansum; conditions: 50 µl/disk
[4] = test system: Alternaria alternata; conditions: 50 µl/disk; for MIC: Alternaria alternata, read-out: MIC mg/l Alternaria alternata
[5] = test system: Botrytis cinerea; conditions: 50 µl/disk; for MIC: Botrytis cinerea, read-out: MIC mg/l Botrytis cinerea
Experimental: A 3-ml volume of full-strength Potato Dextrose Agar (PDA) is added to each well. […] Cat. No. 1001-0155) are placed on the underside of a polyethylene PCR plate sealing film. […] The acetone is permitted to evaporate for 5 minutes. The headspace around the Botrytis cinerea inoculum is then sealed inside the well by the film with the adhering disk containing the fungicide. Plates are inverted to prevent any possibility of the chemical from flaking from the disk and falling onto the inoculated agar.

Compound | MIC mg/l Monilinia fructicola ([1]; first test (Table 15)) [mg/L] | MIC mg/l Glomerella cingulata [2] [mg/L] | MIC mg/l Penicillium expansum ([3]; first test (Table 15)) [mg/L] | MIC mg/l Penicillium expansum ([3]; repeat test (Table 16)) [mg/L] | MIC mg/l Alternaria alternata ([4]; first test (Table 15)) [mg/L] | MIC mg/l Botrytis cinerea ([5]; first test (Table 15)) [mg/L] | MIC mg/l Botrytis cinerea ([5]; repeat test (Table 16)) [mg/L] | MIC ([1]; Monilinia fructicola, repeat test (Table 16), read-out: MIC mg/l Monilinia fructicola) [mg/L] | MIC ([3]; Penicillium expansum, first test (Table 15), read-out: MIC mg/l Penicillium expansum) [mg/L] | MIC ([4]; first test (Table 15)) [mg/L] | MIC ([4]; repeat test (Table 16)) [mg/L] | MIC ([5]; first test (Table 15)) [mg/L] | MIC ([5]; repeat test (Table 16)) [mg/L] | MIC mg/l Monilinia fructicola ([1]; repeat test (Table 16)) [mg/L] | MIC mg/l Alternaria alternata ([4]; repeat test (Table 16)) [mg/L]
c1ccc2c(c1)COB2OCCOB1OCc2ccccc21 [Sample 2] | 35.7 | 142.9 | 8.9 | 8.9 | 8.9 | <0.6 | 2.2 |  |  |  |  |  |  |  | 
Fc1ccc2c(c1)COB2OCCOB1OCc2cc(F)ccc21 [Sample 1] |  |  |  | 8.9 |  |  |  | 2.2 | 8.9 | 22 | > 2.2 | < 0.6 | 0.6 |  | 
CC(COB1OCc2cc(F)ccc21)OB1OCc2cc(F)ccc21 (stereo not drawn) [Sample 4] |  |  | 8.9 | 8.9 | 1.1 | <0.6 | 0.6 |  |  |  |  |  |  | 1.1 | >2.2

— patent US12329158B2, “Large-scale methods of uniformly coating packaging surfaces with a volatile antimicrobial to preserve food freshness” (AGROFRESH INC., priority 2013, dated 2025)
